# Assay results reported in patent publication US12544395B2, “Combination compositions comprising a beta-lactamase inhibitor and uses thereof” (priority 2018, dated 2026).
# Values joined by “and” are separate entries in the source; they are usually repeats but may differ in a detail not shown here. Equal values may be shown once.
# Experiments:
# [1] = Metabolic stability in liver S9; assay type: in vitro ADME; settings: Human, test conc. 3 μM
# [2] = Metabolic stability in liver S9; assay type: in vitro ADME, cynomolgus monkey; settings: Monkey, test conc. 3 μM
# [3] = Metabolic stability in liver S9; assay type: in vitro ADME, beagle dog; settings: Dog, test conc. 3 μM
# [4] = Metabolic stability in liver S9; assay type: in vitro ADME, Sprague-Dawley rat; settings: Rat, test conc. 3 μM
# [5] = Metabolic stability in liver S9; assay type: in vitro ADME, CD-1 mouse; settings: Mouse, test conc. 3 μM
# [6] = Metabolic stability in intestinal S9; assay type: in vitro ADME; settings: Human, test conc. 3 μM
# [7] = Metabolic stability in intestinal S9; assay type: in vitro ADME, cynomolgus monkey; settings: Monkey, test conc. 3 μM
# [8] = Metabolic stability in intestinal S9; assay type: in vitro ADME, beagle dog; settings: Dog, test conc. 3 μM
# [9] = Metabolic stability in intestinal S9; assay type: in vitro ADME, Sprague-Dawley rat; settings: Rat, test conc. 3 μM
# [10] = Metabolic stability in intestinal S9; assay type: in vitro ADME, CD-1 mouse; settings: Mouse, test conc. 3 μM
# [11] = Metabolic stability in plasma; assay type: in vitro ADME; settings: Human, test conc. 3 μM
# [12] = Metabolic stability in plasma; assay type: in vitro ADME; settings: cynomolgus, Monkey, test conc. 3 μM
# [13] = Metabolic stability in plasma; assay type: in vitro ADME, beagle dog; settings: Dog, test conc. 3 μM
# [14] = Metabolic stability in plasma; assay type: in vitro ADME; settings: Sprague-Dawley, Rat, test conc. 3 μM
# [15] = Metabolic stability in plasma; assay type: in vitro ADME, CD-1 mouse; settings: CD-1, plasma; Mouse; test conc. 3 μM
# [16] = Single ascending dose pharmacokinetics, Solutol HS-15:Water (10:90); assay type: in vivo, Beagle dogs; settings: Compound 1 300 mg/kg PO, non-fasted
# Protocol: The dosing formulation for Compound 1 was prepared in Solutol HS-15:Water (10:90 v/v) which provided dosing formulations of Compound 1 as a solution (homogeneous and chemically-stable up to a concentration of 30 mg/mL) and as a emulsion (physically- and chemically-stable at concentrations ranging from 31-100 mg/mL) with dose concentrations ranging from 2-60 mg/mL.
# [17] = Oral dosing formulation in Solutol HS-15:Water, solution/emulsion stability; assay type: physicochemical
# Protocol: (§1) This study included dose concentrations ranging from 2-120 mg/mL.
# as §1
# [18] = system: ESBL-expressing Enterobacteriaceae (n = 33); assay: Broth microdilution MIC, ceftibuten/Compound 2 vs IV comparators; assay type: cell-based; settings: for Number of strains at MIC value 0.5 mg/L / Number of strains at MIC value 1 mg/L / Number of strains at MIC value 2 mg/L / Number of strains at MIC value 4 mg/L / Number of strains at MIC value 8 mg/L / Number of strains at MIC value 16 mg/L / Number of strains at MIC value […] / Number of strains at MIC value ≤0.06 mg/L / Number of strains at MIC value ≥32 mg/L: ESBL-expressing (n = 33); for MIC50 / MIC90: iv
# [19] = system: KPC-expressing Enterobacteriaceae (n = 77); assay: organism not typed; assay type: cell-based; settings: for Number of strains at MIC value 0.5 mg/L / Number of strains at MIC value 1 mg/L / Number of strains at MIC value 2 mg/L / Number of strains at MIC value 4 mg/L / Number of strains at MIC value 8 mg/L / Number of strains at MIC value 16 mg/L / Number of strains at MIC value […] / Number of strains at MIC value ≤0.06 mg/L / Number of strains at MIC value ≥32 mg/L: KPC-expressing (n = 77); for MIC50 / MIC90: iv
# [20] = system: AmpC/CMY-expressing Enterobacteriaceae (n = 44); assay: Broth microdilution MIC, ceftibuten/Compound 2 vs IV comparators; assay type: cell-based; settings: for Number of strains at MIC value 0.5 mg/L / Number of strains at MIC value 1 mg/L / Number of strains at MIC value 2 mg/L / Number of strains at MIC value 4 mg/L / Number of strains at MIC value 8 mg/L / Number of strains at MIC value 16 mg/L / Number of strains at MIC value […] / Number of strains at MIC value ≤0.06 mg/L / Number of strains at MIC value ≥32 mg/L: AmpC/CMY-expressing (n = 44); for MIC50 / MIC90: iv
# [21] = system: OXA-48-expressing Enterobacteriaceae (n = 39); assay: as above
# [22] = Solutol HS-15:Water (10:90 v/v)
# [23] = Solutol HS-15:Water (20:80 v/v)
smiles,measurement,setting,value
COCC1=C(C(=O)OC(C)OC(=O)OC(C)C)N2C(=O)[C@@H](NC(=O)/C(=N\OC)c3csc(N)n3)[C@H]2SC1 (some centres unmarked) [Cefpodoxime proxetil],half-life at 3 μM,[1]; liver S9,3.4 min
same,half-life at 3 μM,"[2]; cynomolgus, liver S9",4.3 min
same,half-life at 3 μM,"[3]; beagle, liver S9",4.7 min
same,half-life at 3 μM,"[4]; Sprague-Dawley, liver S9",10.2 min
same,half-life at 3 μM,"[5]; CD-1, liver S9",2.4 min
same,half-life at 3 μM,[6]; intestinal S9,35.6 min
same,half-life at 3 μM,"[7]; cynomolgus, intestinal S9",16.9 min
same,half-life at 3 μM,"[8]; beagle, intestinal S9",> 120 min
same,half-life at 3 μM,"[9]; Sprague-Dawley, intestinal S9",7.4 min
same,half-life at 3 μM,"[10]; CD-1, intestinal S9",2.5 min
same,half-life at 3 μM,[11]; plasma,4.8 min
same,half-life at 3 μM,[12],12.4 min
same,half-life at 3 μM,"[13]; beagle, plasma",26.2 min
same,half-life at 3 μM,[14],0.8 min
same,half-life at 3 μM,[15],0.6 min
"CCC(=O)N[C@H]1Cc2cccc(C(=O)OCOC(=O)C(CC)CC)c2OB1O [Compound 1, ((2-Ethylbutanoyl)oxy)methyl (R)-2-hydroxy-3-propionamido-3,4-dihydro-2H-benzo[e][1,2]oxaborinine-8-carboxylate]",dogs exhibiting emesis,[16],3 of 4
same,Liver S9 Half-life,[1],1.0 min
same,Liver S9 Half-life,[2],0.8 min
same,Liver S9 Half-life,[3],0.5 min
same,Liver S9 Half-life,[4],2.3 min
same,Liver S9 Half-life,[5],1.2 min
same,Intestinal S9 Half-life,[6],2.9 min
same,Intestinal S9 Half-life,[7],11.2 min
same,Intestinal S9 Half-life,[8],49.0 min
same,Intestinal S9 Half-life,[9],3.9 min
same,Intestinal S9 Half-life,[10],1.1 min
same,Plasma Half-life,[11],10.7 min
same,half-life at 3 μM,[12],22 min
same,Plasma Half-life,[13],43.9 min
same,half-life at 3 μM,[14],1.6 min
same,half-life at 3 μM,[15],4.6 min
same,homogeneous and chemically-stable solution up to a concentration,[17]; [22],≤ 30 mg/mL
same,physically- and chemically-stable emulsion at concentrations,[17]; [22],31 to 100 mg/mL
same,homogeneous and chemically-stable solution up to a concentration,[17]; [23],≤ 60 mg/mL
same,physically- and chemically-stable emulsion at concentrations,[17]; [23],61 to 200 mg/mL
C[C@@H](O)[C@H]1C(=O)N2C(C(=O)O)=C(S[C@@H]3CN[C@H](C(=O)N(C)C)C3)[C@H](C)[C@H]12 [Meropenem],Number of strains at MIC value 0.5 mg/L,[18],0
same,Number of strains at MIC value 1 mg/L,[18],1
same,Number of strains at MIC value 2 mg/L,[18],1
same,Number of strains at MIC value 4 mg/L,[18],0
same,Number of strains at MIC value 8 mg/L,[18],1
same,Number of strains at MIC value 16 mg/L,[18],0
same,Number of strains at MIC value […],[18],1 and 0
same,Number of strains at MIC value ≤0.06 mg/L,[18],29
same,Number of strains at MIC value ≥32 mg/L,[18],0
same,MIC50,[18],≤ 0.06 mg/L
same,MIC90,[18],0.125 mg/L
same,Number of strains at MIC value 0.5 mg/L,[19],1
same,Number of strains at MIC value 1 mg/L,[19],0
same,Number of strains at MIC value 2 mg/L,[19],3
same,Number of strains at MIC value 4 mg/L,[19],4
same,Number of strains at MIC value 8 mg/L,[19],11
same,Number of strains at MIC value 16 mg/L,[19],13
same,Number of strains at MIC value […],[19],0
same,Number of strains at MIC value ≤0.06 mg/L,[19],1
same,Number of strains at MIC value ≥32 mg/L,[19],44
same,MIC50,[19],≥ 32 mg/L
same,MIC90,[19],≥ 32 mg/L
same,Number of strains at MIC value 0.5 mg/L,[20],2
same,Number of strains at MIC value 1 mg/L,[20],1
same,Number of strains at MIC value 2 mg/L,[20],0
same,Number of strains at MIC value 4 mg/L,[20],3
same,Number of strains at MIC value 8 mg/L,[20],0
same,Number of strains at MIC value 16 mg/L,[20],0
same,Number of strains at MIC value […],[20],2
same,Number of strains at MIC value ≤0.06 mg/L,[20],34
same,Number of strains at MIC value ≥32 mg/L,[20],0
same,MIC50,[20],≤ 0.06 mg/L
same,MIC90,[20],0.5 mg/L
same,MIC50,[21],2 mg/L
same,MIC90,[21],8 mg/L
CN(C)c1cc(NC(=O)CNC(C)(C)C)c(O)c2c1C[C@H]1C[C@H]3[C@H](N(C)C)C(O)=C(C(N)=O)C(=O)[C@@]3(O)C(O)=C1C2=O [Tigecycline],Number of strains at MIC value 0.5 mg/L,[18],11
same,Number of strains at MIC value 1 mg/L,[18],3
same,Number of strains at MIC value 2 mg/L,[18],3
same,Number of strains at MIC value 4 mg/L,[18],2
same,Number of strains at MIC value 8 mg/L,[18],0
same,Number of strains at MIC value 16 mg/L,[18],0
same,Number of strains at MIC value […],[18],4 and 10
same,Number of strains at MIC value ≤0.06 mg/L,[18],0
same,Number of strains at MIC value ≥32 mg/L,[18],0
same,MIC50,[18],0.5 mg/L
same,MIC90,[18],2 mg/L
same,Number of strains at MIC value 0.5 mg/L,[19],19
same,Number of strains at MIC value 1 mg/L,[19],34
same,Number of strains at MIC value 2 mg/L,[19],15
same,Number of strains at MIC value 4 mg/L,[19],5
same,Number of strains at MIC value 8 mg/L,[19],0
same,Number of strains at MIC value 16 mg/L,[19],0
same,Number of strains at MIC value […],[19],0 and 4
same,Number of strains at MIC value ≤0.06 mg/L,[19],0
same,Number of strains at MIC value ≥32 mg/L,[19],0
same,MIC50,[19],1 mg/L
same,MIC90,[19],2 mg/L
same,Number of strains at MIC value 0.5 mg/L,[20],8
same,Number of strains at MIC value 1 mg/L,[20],10
same,Number of strains at MIC value 2 mg/L,[20],10
same,Number of strains at MIC value 4 mg/L,[20],4
same,Number of strains at MIC value 8 mg/L,[20],2
same,Number of strains at MIC value 16 mg/L,[20],0
same,Number of strains at MIC value […],[20],4 and 6
same,Number of strains at MIC value ≤0.06 mg/L,[20],0
same,Number of strains at MIC value ≥32 mg/L,[20],0
same,MIC50,[20],1 mg/L
same,MIC90,[20],4 mg/L
same,MIC50,[21],0.5 mg/L
same,MIC90,[21],2 mg/L
NC[C@H]1O[C@H](O[C@H]2[C@H](O)[C@@H](O[C@H]3O[C@H](CO)[C@@H](O)[C@H](N)[C@H]3O)[C@H](N)C[C@@H]2N)[C@H](N)C[C@@H]1O [Tobramycin],Number of strains at MIC value 0.5 mg/L,[18],3
same,Number of strains at MIC value 1 mg/L,[18],5
same,Number of strains at MIC value 2 mg/L,[18],2
same,Number of strains at MIC value 4 mg/L,[18],1
same,Number of strains at MIC value 8 mg/L,[18],1
same,Number of strains at MIC value 16 mg/L,[18],4
same,Number of strains at MIC value […],[18],0
same,Number of strains at MIC value ≤0.06 mg/L,[18],0
same,Number of strains at MIC value ≥32 mg/L,[18],17
same,MIC50,[18],≥ 32 mg/L
same,MIC90,[18],≥ 32 mg/L
same,Number of strains at MIC value 0.5 mg/L,[19],3
same,Number of strains at MIC value 1 mg/L,[19],0
same,Number of strains at MIC value 2 mg/L,[19],2
same,Number of strains at MIC value 4 mg/L,[19],0
same,Number of strains at MIC value 8 mg/L,[19],3
same,Number of strains at MIC value 16 mg/L,[19],3
same,Number of strains at MIC value […],[19],0 and 1
same,Number of strains at MIC value ≤0.06 mg/L,[19],0
same,Number of strains at MIC value ≥32 mg/L,[19],65
same,MIC50,[19],≥ 32 mg/L
same,MIC90,[19],≥ 32 mg/L
same,Number of strains at MIC value 0.5 mg/L,[20],2
same,Number of strains at MIC value 1 mg/L,[20],2
same,Number of strains at MIC value 2 mg/L,[20],0
same,Number of strains at MIC value 4 mg/L,[20],3
same,Number of strains at MIC value 8 mg/L,[20],3
same,Number of strains at MIC value 16 mg/L,[20],6
same,Number of strains at MIC value […],[20],0
same,Number of strains at MIC value ≤0.06 mg/L,[20],0
same,Number of strains at MIC value ≥32 mg/L,[20],28
same,MIC50,[20],≥ 32 mg/L
same,MIC90,[20],≥ 32 mg/L
same,MIC50,[21],16 mg/L
same,MIC90,[21],≥ 32 mg/L
